Test results taken from patent US11649255B2, “Indazoles as hematopoietic progenitor kinase 1 (HPK1) inhibitors and methods using same” (1st Biotherapeutics, Inc., priority 2020, dated 2023).

Molecular target: recombinant human HPK1 (Homo sapiens (Human), UniProt Q92918)
Test: HPK1 kinase assay (ADP-Glo)
Assay type: biochemical
Conditions: 25 μM ATP, MBP substrate
Outline: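 Activity was read as ADP formed, detected by ADP-Glo luminescence after the reaction of 5 ng recombinant human HPK1 with MBP and ATP (stocks 0.5 μg/μl and 25 μM) for 40 min at 30 °C. Buffer was Tris pH 7.5 with MgCl2, BSA and DTT, with compound in 0.5% DMSO. IC50 came from inhibition curves.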

recombinant human HPK1, sequence (Q92918 whole entry): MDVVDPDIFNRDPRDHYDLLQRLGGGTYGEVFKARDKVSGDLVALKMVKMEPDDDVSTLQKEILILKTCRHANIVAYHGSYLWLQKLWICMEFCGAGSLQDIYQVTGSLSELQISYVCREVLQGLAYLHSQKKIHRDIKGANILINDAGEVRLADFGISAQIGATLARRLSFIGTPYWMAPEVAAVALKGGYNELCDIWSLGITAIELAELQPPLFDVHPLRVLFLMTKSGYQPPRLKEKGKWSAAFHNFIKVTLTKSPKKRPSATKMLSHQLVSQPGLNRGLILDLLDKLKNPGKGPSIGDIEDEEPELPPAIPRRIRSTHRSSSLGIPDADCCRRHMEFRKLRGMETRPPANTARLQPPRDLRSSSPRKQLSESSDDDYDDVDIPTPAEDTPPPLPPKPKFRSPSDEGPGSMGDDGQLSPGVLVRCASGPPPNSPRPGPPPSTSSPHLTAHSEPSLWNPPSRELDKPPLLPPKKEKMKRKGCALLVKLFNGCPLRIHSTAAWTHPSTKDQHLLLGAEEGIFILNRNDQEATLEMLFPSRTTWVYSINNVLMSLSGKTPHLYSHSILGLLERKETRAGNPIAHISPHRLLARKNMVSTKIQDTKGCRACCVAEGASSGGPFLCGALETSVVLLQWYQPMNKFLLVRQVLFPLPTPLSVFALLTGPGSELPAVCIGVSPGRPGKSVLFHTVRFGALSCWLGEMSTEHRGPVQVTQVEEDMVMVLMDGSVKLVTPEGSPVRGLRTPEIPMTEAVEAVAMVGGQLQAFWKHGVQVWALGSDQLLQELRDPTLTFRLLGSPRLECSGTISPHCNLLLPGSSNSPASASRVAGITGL

| SMILES | IC50 |
| --- | --- |
| CN(c1ncccn1)c1c(F)c(Cl)c(-c2ccc3nc(NC(=O)[C@@H]4C[C@@H]4F)cn3c2)c2cn[nH]c12 [Example 346, (1S,2S)-N-(6-(5-chloro-6-fluoro-7-(methyl(pyrimidin-2-yl)amino)-1H-indazol-4-yl)imidazo[1,2-a]pyridin-2-yl)-2-fluorocyclopropane-1-carboxamide] | < 100 nM |
| CN(CC(F)(F)F)C(=O)c1c(F)c(Cl)c(-c2ccc3nc(NC(=O)[C@@H]4C[C@@H]4F)cn3c2)c2cn[nH]c12 [Example 347, 5-chloro-6-fluoro-4-(2-((1S,2S)-2-fluorocyclopropane-1-carboxamido)imidazo[1,2-a]pyridin-6-yl)-N-methyl-N-(2,2,2-trifluoroethyl)-1H-indazole-7-carboxamide] | < 100 nM |
| CN(c1ccncn1)c1c(F)c(Cl)c(-c2ccc3nc(NC(=O)[C@@H]4C[C@@H]4F)cn3c2)c2cn[nH]c12 [Example 348, (1S,2S)-N-(6-(5-chloro-6-fluoro-7-(methyl(pyrimidin-4-yl)amino)-1H-indazol-4-yl)imidazo[1,2-a]pyridin-2-yl)-2-fluorocyclopropane-1-carboxamide] | < 100 nM |
| CN(Cc1cccnc1)c1c(F)c(Cl)c(-c2ccc3nc(NC(=O)[C@@H]4C[C@@H]4F)cn3c2)c2cn[nH]c12 [Example 349, (1S,2S)-N-(6-(5-chloro-6-fluoro-7-(methyl(pyridin-3-ylmethyl)amino)-1H-indazol-4-yl)imidazo[1,2-a]pyridin-2-yl)-2-fluorocyclopropane-1-carboxamide] | < 100 nM |
| Cn1nnnc1-c1c(F)c(Cl)c(-c2ccc3nc(NC(=O)[C@@H]4C[C@@H]4F)cn3c2)c2cn[nH]c12 [Example 350, (1S,2S)-N-(6-(5-chloro-6-fluoro-7-(1-methyl-1H-tetrazol-5-yl)-1H-indazol-4-yl)imidazo[1,2-a]pyridin-2-yl)-2-fluorocyclopropane-1-carboxamide] | < 100 nM |
| CN(C)c1ccc(-c2ccc3nc(NC(=O)[C@@H]4C[C@@H]4F)cn3c2)c2cn[nH]c12 [Example 352, (1S,2S)-N-(6-(7-(dimethylamino)-1H-indazol-4-yl)imidazo[1,2-a]pyridin-2-yl)-2-fluorocyclopropane-1-carboxamide] | 101 to 500 nM |
| CN(Cc1ccncc1)c1c(F)c(Cl)c(-c2ccc3nc(NC(=O)[C@@H]4C[C@@H]4F)cn3c2)c2cn[nH]c12 [Example 353, (1S,2S)-N-(6-(5-chloro-6-fluoro-7-(methyl(pyridin-4-ylmethyl)amino)-1H-indazol-4-yl)imidazo[1,2-a]pyridin-2-yl)-2-fluorocyclopropane-1-carboxamide] | < 100 nM |
| CN(C)C(=O)c1c(F)cc(-c2ccc3nc(NC(=O)[C@@H]4C[C@@H]4F)cn3c2)c2cn[nH]c12 [Example 354, 6-fluoro-4-(2-((1S,2S)-2-fluorocyclopropane-1-carboxamido)imidazo[1,2-a]pyridin-6-yl)-N,N-dimethyl-1H-indazole-7-carboxamide] | > 1000 nM |
| CN(C)C(=O)c1c(F)cc2[nH]ncc2c1-c1ccc2nc(NC(=O)[C@@H]3C[C@@H]3F)cn2c1 [Example 355, 6-fluoro-4-(2-((1S,2S)-2-fluorocyclopropane-1-carboxamido)imidazo[1,2-a]pyridin-6-yl)-N,N-dimethyl-1H-indazole-5-carboxamide] | > 1000 nM |
| CCOc1c(F)c(F)c2[nH]ncc2c1-c1ccc2nc(NC(=O)[C@@H]3C[C@@H]3F)cn2c1 [Example 357, (1S,2S)-N-(6-(5-ethoxy-6,7-difluoro-1H-indazol-4-yl)imidazo[1,2-a]pyridin-2-yl)-2-fluorocyclopropane-1-carboxamide] | < 100 nM |
| CN1CCN(c2c(F)c(Cl)c(-c3ccc4nc(NC(=O)[C@@H]5C[C@@H]5F)cn4c3)c3cn[nH]c23)C1=O [Example 358, (1S,2S)-N-(6-(5-chloro-6-fluoro-7-(3-methyl-2-oxoimidazolidin-1-yl)-1H-indazol-4-yl)imidazo[1,2-a]pyridin-2-yl)-2-fluorocyclopropane-1-carboxamide] | < 100 nM |
| Cc1noc(-c2c(F)c(Cl)c(-c3ccc4nc(NC(=O)[C@@H]5C[C@@H]5F)cn4c3)c3cn[nH]c23)n1 [Example 364, (1S,2S)-N-(6-(5-chloro-6-fluoro-7-(3-methyl-1,2,4-oxadiazol-5-yl)-1H-indazol-4-yl)imidazo[1,2-a]pyridin-2-yl)-2-fluorocyclopropane-1-carboxamide] | < 100 nM |
| O=C(Nc1cn2cc(-c3c(Cl)c(F)c(N(C(=O)C(F)(F)F)C4CC4)c4[nH]ncc34)ccc2n1)[C@@H]1C[C@@H]1F [Example 368, (1S,2S)-N-(6-(5-chloro-7-(N-cyclopropyl-2,2,2-trifluoroacetamido)-6-fluoro-1H-indazol-4-yl)imidazo[1,2-a]pyridin-2-yl)-2-fluorocyclopropane-1-carboxamide] | < 100 nM |

More lines, now with the values ahead:

| IC50 | SMILES |
| --- | --- |
| < 100 nM | N#Cc1c(F)c(Cl)c(-c2ccc3nc(NC(=O)[C@@H]4C[C@@H]4F)cn3c2)c2cn[nH]c12 [Example 351, (1S,2S)-N-(6-(5-chloro-7-cyano-6-fluoro-1H-indazol-4-yl)imidazo[1,2-a]pyridin-2-yl)-2-fluorocyclopropane-1-carboxamide] |
| < 100 nM | CC(C)N(C)c1c(F)c(Cl)c(-c2ccc3nc(NC(=O)[C@@H]4C[C@@H]4F)cn3c2)c2cn[nH]c12 [Example 360, (1S,2S)-N-(6-(5-chloro-6-fluoro-7-(isopropyl(methyl)amino)-1H-indazol-4-yl)imidazo[1,2-a]pyridin-2-yl)-2-fluorocyclopropane-1-carboxamide] |
| < 100 nM | O=C(Nc1cn2cc(-c3c(Cl)c(F)c(CF)c4[nH]ncc34)ccc2n1)[C@@H]1C[C@@H]1F [Example 363, (1S,2S)-N-(6-(5-chloro-6-fluoro-7-(fluoromethyl)-1H-indazol-4-yl)imidazo[1,2-a]pyridin-2-yl)-2-fluorocyclopropane-1-carboxamide] |
| < 100 nM | O=C(Nc1cn2cc(-c3c(Cl)c(F)c(-n4cccc4)c4[nH]ncc34)ccc2n1)[C@@H]1C[C@@H]1F [Example 365, (1S,2S)-N-(6-(5-chloro-6-fluoro-7-(1H-pyrrol-1-yl)-1H-indazol-4-yl)imidazo[1,2-a]pyridin-2-yl)-2-fluorocyclopropane-1-carboxamide] |
| < 100 nM | N#CCNc1c(F)c(Cl)c(-c2ccc3nc(NC(=O)[C@@H]4C[C@@H]4F)cn3c2)c2cn[nH]c12 [Example 366, (1S,2S)-N-(6-(5-chloro-7-((cyanomethyl)amino)-6-fluoro-1H-indazol-4-yl)imidazo[1,2-a]pyridin-2-yl)-2-fluorocyclopropane-1-carboxamide] |
| < 100 nM | O=C(Nc1cn2cc(-c3c(Cl)c(F)c(NC4CC4)c4[nH]ncc34)ccc2n1)[C@@H]1C[C@@H]1F [Example 367, (1S,2S)-N-(6-(5-chloro-7-(cyclopropylamino)-6-fluoro-1H-indazol-4-yl)imidazo[1,2-a]pyridin-2-yl)-2-fluorocyclopropane-1-carboxamide] |
| < 100 nM | O=C(CCO)Nc1c(F)c(Cl)c(-c2ccc3nc(NC(=O)[C@@H]4C[C@@H]4F)cn3c2)c2cn[nH]c12 [Example 369, (1S,2S)-N-(6-(5-chloro-6-fluoro-7-(3-hydroxypropanamido)-1H-indazol-4-yl)imidazo[1,2-a]pyridin-2-yl)-2-fluorocyclopropane-1-carboxamide] |
| < 100 nM | CCC(C)Nc1c(F)c(Cl)c(-c2ccc3nc(NC(=O)[C@@H]4C[C@@H]4F)cn3c2)c2cn[nH]c12 (stereo partly drawn) [Example 370, (1S,2S)-N-(6-(7-(sec-butylamino)-5-chloro-6-fluoro-1H-indazol-4-yl)imidazo[1,2-a]pyridin-2-yl)-2-fluorocyclopropane-1-carboxamide] |
| < 100 nM | CC(C#N)Nc1c(F)c(Cl)c(-c2ccc3nc(NC(=O)[C@@H]4C[C@@H]4F)cn3c2)c2cn[nH]c12 (stereo partly drawn) [Example 371, (1S,2S)-N-(6-(5-chloro-7-((1-cyanoethyl)amino)-6-fluoro-1H-indazol-4-yl)imidazo[1,2-a]pyridin-2-yl)-2-fluorocyclopropane-1-carboxamide] |
| < 100 nM | O=C(Nc1cn2cc(-c3c(Cl)c(F)c(Cn4ncnn4)c4[nH]ncc34)ccc2n1)[C@@H]1C[C@@H]1F [Example 379, (1S,2S)-N-(6-(7-((2H-tetrazol-2-yl)methyl)-5-chloro-6-fluoro-1H-indazol-4-yl)imidazo[1,2-a]pyridin-2-yl)-2-fluorocyclopropane-1-carboxamide] |
| < 100 nM | O=C(Nc1cn2cc(-c3c(Cl)c(F)c(CN4CCC4)c4[nH]ncc34)ccc2n1)[C@@H]1C[C@@H]1F [Example 380, (1S,2S)-N-(6-(7-(azetidin-1-ylmethyl)-5-chloro-6-fluoro-1H-indazol-4-yl)imidazo[1,2-a]pyridin-2-yl)-2-fluorocyclopropane-1-carboxamide] |
| 101 to 500 nM | O=C(Nc1cn2cc(-c3c(Cl)c(F)c(CN4CCCCC4)c4[nH]ncc34)ccc2n1)[C@@H]1C[C@@H]1F [Example 382, (1S,2S)-N-(6-(5-chloro-6-fluoro-7-(piperidin-1-ylmethyl)-1H-indazol-4-yl)imidazo[1,2-a]pyridin-2-yl)-2-fluorocyclopropane-1-carboxamide] |
| < 100 nM | O=C(Nc1cn2cc(-c3c(Cl)c(F)c(Cn4nccn4)c4[nH]ncc34)ccc2n1)[C@@H]1C[C@@H]1F [Example 383, (1S,2S)-N-(6-(7-((2H-1,2,3-triazol-2-yl)methyl)-5-chloro-6-fluoro-1H-indazol-4-yl)imidazo[1,2-a]pyridin-2-yl)-2-fluorocyclopropane-1-carboxamide] |
| < 100 nM | O=C(Nc1cn2cc(-c3c(Cl)c(F)c(Cn4ccnn4)c4[nH]ncc34)ccc2n1)[C@@H]1C[C@@H]1F [Example 384, (1S,2S)-N-(6-(7-((1H-1,2,3-triazol-1-yl)methyl)-5-chloro-6-fluoro-1H-indazol-4-yl)imidazo[1,2-a]pyridin-2-yl)-2-fluorocyclopropane-1-carboxamide] |
